# Results published in PubChem BioAssay AID1259408 (Genetic Toxicology Data Bank (GENE-TOX), 2018).
# Activity calls are given as the source filed them. The rule behind the calls is not given here.
# Tested on: GENE-TOX genotoxicity assays, various organisms and cells
# Assay: GENE-TOX mutagenicity studies
# Details: for call: Assay Type: In vivo carcinogenicity studies
# [1] = Species/Cell Type: Salmonella typhimurium (one or more of the five standard strains: TA98, TA100, TA1535, TA1537, and TA1538), Assay Type: Histidine reverse gene mutation, Ames assay, Assay Code: SAL+*, Activation: With metabolic activation, Evaluation Type: Evaluation A (Pre-1980)
# [2] = Species/Cell Type: Salmonella typhimurium (one or more of the five standard strains: TA98, TA100, TA1535, TA1537, and TA1538), Assay Type: Histidine reverse gene mutation, Ames assay, Assay Code: SAL+, Evaluation Type: Evaluation A (Pre-1980)
# [3] = Species/Cell Type: Mammalian polychromatic erythrocytes, Assay Type: Micronucleus test, chromosome aberrations, Assay Code: MNT-, Evaluation Type: Evaluation B (Post-1980)
# [4] = Species/Cell Type: Salmonella typhimurium (one or more of the five standard strains: TA98, TA100, TA1535, TA1537, and TA1538), Assay Type: Histidine reverse gene mutation, Ames assay, Assay Code: SAL-, Evaluation Type: Evaluation A (Pre-1980)
# [5] = Species/Cell Type: Drosophila melanogaster, Assay Type: Sex-linked recessive lethal gene mutation, Assay Code: SRL+, Evaluation Type: Evaluation A (Pre-1980)
# [6] = Species/Cell Type: Mouse, Sex: Male, Assay Type: Sperm morphology, Assay Code: SPI-, Evaluation Type: Evaluation A (Pre-1980)
# [7] = Species/Cell Type: Rodents, Sex: Male, Assay Type: Dominant lethal test, Assay Code: DLT-, Evaluation Type: Evaluation A (Pre-1980)
# [8] = Species/Cell Type: Nonhuman, Assay Code: CCG+, Evaluation Type: Evaluation A (Pre-1980)
compound,measurement,setting,value
CSc1nnc(C(C)(C)C)c(=O)n1N,mutagenic call,"Species/Cell Type: Saccharomyces cerevisiae, Assay Type: Mitotic recombination or gene conversion, Assay Code: YEC-, Evaluation Type: Evaluation A (Pre-1980)",inactive; negative
Cc1cc2c(c3ccc4ccccc4c13)CCC2=O,mutagenic call,"Species/Cell Type: Human lymphocytes, Assay Type: Sister-chromatid exchange (SCE) in vitro, Assay Code: SCL+D*, Activation: With metabolic activation, Dose Response: With dose response, Evaluation Type: Evaluation B (Post-1980)",active; positive
same,mutagenic call,"Species/Cell Type: Human, Assay Type: Sister-chromatid exchange (SCE) in vitro, Assay Code: SC1+D*, Activation: With metabolic activation, Dose Response: With dose response, Evaluation Type: Evaluation B (Post-1980)",active; positive
same,mutagenic call,"Species/Cell Type: Nonhuman, Assay Type: Sister-chromatid exchange (SCE) in vivo, Assay Code: SC3+, Evaluation Type: Evaluation B (Post-1980)",active; positive
same,mutagenic call,[1],active; positive
ClCc1c2ccccc2c(CCl)c2ccccc12,mutagenic call,[2],active; positive
CC[C@@]1(O)C[C@H](O[C@H]2C[C@H](N)[C@H](O)[C@H](C)O2)c2c(cc3c(c2O)C(=O)c2c(O)cccc2C3=O)[C@H]1C(=O)OC,mutagenic call,[1],active; positive
O=C1c2c(O)cccc2Cc2cccc(O)c21,mutagenic call,[3],inactive; negative
same,mutagenic call,"Species/Cell Type: Saccharomyces cerevisiae, Assay Type: Mitotic recombination or gene conversion, Assay Code: YECT, Evaluation Type: Evaluation A (Pre-1980)",no conclusion
O=C1OC(=O)c2c(Br)c(Br)c(Br)c(Br)c21,mutagenic call,[4],inactive; negative
O=c1c2ccc3cccc4c(=O)cc(c5ccccc15)-c2c34,mutagenic call,"Species/Cell Type: Chinese hamster lung (V79) cells, Assay Type: Forward gene mutation at the HPRT or ouabain locus, Assay Code: V79-, Evaluation Type: Evaluation A (Pre-1980)",inactive; negative
same,call,"Species/Cell Type: Nonhuman, Assay Code: CCGT, Evaluation Type: Evaluation A (Pre-1980)",no conclusion
same,mutagenic call,"Species/Cell Type: Salmonella typhimurium (one or more of the five standard strains: TA98, TA100, TA1535, TA1537, and TA1538), Assay Type: Histidine reverse gene mutation, Ames assay, Assay Code: SALT, Evaluation Type: Evaluation A (Pre-1980)",no conclusion
Cc1ccc(S(=O)(=O)NC(=O)NN2CCCCCC2)cc1,mutagenic call,"Species/Cell Type: Nonhuman, Assay Type: Sister-chromatid exchange (SCE) in vivo, Assay Code: SC3T, Evaluation Type: Evaluation B (Post-1980)",no conclusion
NC[C@@H]1CC[C@@H](N)[C@@H](O[C@H]2[C@H](O)[C@@H](O[C@H]3O[C@H](CO)[C@@H](O)[C@H](N)[C@H]3O)[C@H](N)C[C@@H]2N)O1,mutagenic call,"Species/Cell Type: Saccharomyces cerevisiae, Assay Type: Mitotic recombination or gene conversion, Assay Code: YEH-, Evaluation Type: Evaluation A (Pre-1980)",inactive; negative
Nc1ccc(N)cc1,mutagenic call,"Species/Cell Type: Allium cepa, Assay Type: Chromosome aberrations, Assay Code: ALC+, Evaluation Type: Evaluation A (Pre-1980)",active; positive
same,mutagenic call,[5],active; positive
same,mutagenic call,"Species/Cell Type: Fischer rat embryo (RLV/1706) cells, Assay Type: Cell transformation, viral enhanced, Assay Code: CTR+, Evaluation Type: Evaluation A (Pre-1980)",active; positive
same,mutagenic call,"Species/Cell Type: Mammalian polychromatic erythrocytes, Assay Type: Micronucleus test, chromosome aberrations, Assay Code: MNTT, Evaluation Type: Evaluation A (Pre-1980)",no conclusion
same,mutagenic call,[6],inactive; negative
same,mutagenic call,"Species/Cell Type: Neurospora crassa, Assay Type: Aneuploidy, chromosome aberrations, Assay Code: NEN-, Evaluation Type: Evaluation A (Pre-1980)",inactive; negative
same,call,"Species/Cell Type: Nonhuman, Assay Code: CCG-, Evaluation Type: Evaluation A (Pre-1980)",inactive; negative
same,mutagenic call,[7],inactive; negative
same,mutagenic call,"Species/Cell Type: Syrian hamster embryo (SA7/SHE) cells, Assay Type: Cell transformation, viral enhanced, Assay Code: CT7+, Evaluation Type: Evaluation A (Pre-1980)",active; positive
Cc1cc(N(CCCl)CCCl)ccc1N=Nc1ccccc1C(=O)O,mutagenic call,[5],active; positive
CCN(CC)CCNc1ccc(COC(=O)c2ccco2)c2sc3ccccc3c(=O)c12,mutagenic call,[2],active; positive
ClC1(Cl)C2(Cl)C3(Cl)C4(Cl)C(Cl)(Cl)C5(Cl)C3(Cl)C1(Cl)C5(Cl)C24Cl (stereo not given),call,[8],active; positive
same,mutagenic call,[7],inactive; negative
[C-]#[N+]C(=C\c1ccc(O)cc1)/C(=C/c1ccc(O)cc1)[N+]#[C-],mutagenic call,"Species/Cell Type: Bacillus subtilis (H17 vs M45), Assay Type: Rec-assay, spot test, DNA effects (bacterial DNA repair), Assay Code: REWT, Evaluation Type: Evaluation A (Pre-1980)",no conclusion
CCCOS(C)(=O)=O,mutagenic call,"Species/Cell Type: Hordeum vulgare (barley), Assay Type: Chromosome aberrations, Assay Code: HOC+, Evaluation Type: Evaluation A (Pre-1980)",active; positive
same,mutagenic call,"Species/Cell Type: Hordeum vulgare (barley), Assay Type: Gene mutation, Assay Code: HOM+D, Dose Response: With dose response, Evaluation Type: Evaluation A (Pre-1980)",active; positive
same,mutagenic call,"Species/Cell Type: Mammalian germ cells, Sex: Male, Assay Type: Chromosome aberrations in vivo, Assay Code: CY9T, Evaluation Type: Evaluation A (Pre-1980)",no conclusion
same,mutagenic call,"Species/Cell Type: Mouse germ cells, Sex: Male, Assay Type: Unscheduled DNA synthesis (UDS) in vivo, DNA effects, Assay Code: UDT+, Evaluation Type: Evaluation A (Pre-1980)",active; positive
same,mutagenic call,"Species/Cell Type: Mouse, Sex: Male, Assay Type: Specific locus test, gene mutation, Assay Code: SLT+, Evaluation Type: Evaluation A (Pre-1980)",active; positive
same,mutagenic call,"Species/Cell Type: Rodents, Sex: Male, Assay Type: Dominant lethal test, Assay Code: DLT+, Evaluation Type: Evaluation A (Pre-1980)",active; positive
CCCCOC(=O)C=[N+]=[N-],mutagenic call,"Species/Cell Type: Arabidopsis species, Assay Type: Gene mutation, Assay Code: ARM+, Evaluation Type: Evaluation A (Pre-1980)",active; positive
CCC(=O)O,mutagenic call,[3],inactive; negative
CN(C)C(=O)Cl,mutagenic call,"Species/Cell Type: Escherichia coli polA (W3119 vs P3478), Assay Type: Rec-assay, DNA effects (bacterial DNA repair), Assay Code: RE1+, Evaluation Type: Evaluation A (Pre-1980)",active; positive
same,mutagenic call,"Species/Cell Type: Human diploid fibroblasts, Assay Type: Unscheduled DNA synthesis (UDS) in vitro, DNA effects, Assay Code: UDH-, Evaluation Type: Evaluation A (Pre-1980)",inactive; negative
same,mutagenic call,"Species/Cell Type: Mammalian polychromatic erythrocytes, Assay Type: Micronucleus test, chromosome aberrations, Assay Code: MNT+, Evaluation Type: Evaluation A (Pre-1980)",active; positive
same,call,[8],active; positive
same,mutagenic call,"Species/Cell Type: Nonhuman, Assay Type: Sister-chromatid exchange (SCE) in vitro, Assay Code: SC2+D, Dose Response: With dose response, Evaluation Type: Evaluation B (Post-1980)",active; positive
same,mutagenic call,"Species/Cell Type: Saccharomyces cerevisiae, Assay Type: Mitotic recombination or gene conversion, Assay Code: YEH+, Evaluation Type: Evaluation A (Pre-1980)",active; positive
same,mutagenic call,[2],active; positive
same,mutagenic call,"Species/Cell Type: Salmonella typhimurium, Assay Type: Forward and reverse gene mutation, host-mediated assay, Assay Code: HMA+, Evaluation Type: Evaluation A (Pre-1980)",active; positive
same,mutagenic call,"Species/Cell Type: Syrian hamster embryo (SHE) cells, Assay Type: Cell transformation, clonal assay, Assay Code: CTC+, Evaluation Type: Evaluation A (Pre-1980)",active; positive
O=P([O-])([O-])[O-].O=P([O-])([O-])[O-].[Pb+2].[Pb+2].[Pb+2],call,[8],active; positive
Nc1ccc(Sc2ccc(N)cc2)cc1,call,[8],active; positive
NCCc1ccc(O)c(O)c1,mutagenic call,"Species/Cell Type: Human lymphocytes, Assay Type: Sister-chromatid exchange (SCE) in vitro, Assay Code: SCL-, Evaluation Type: Evaluation B (Post-1980)",inactive; negative
same,mutagenic call,"Species/Cell Type: Human, Assay Type: Sister-chromatid exchange (SCE) in vitro, Assay Code: SC1-, Evaluation Type: Evaluation B (Post-1980)",inactive; negative
same,mutagenic call,[3],inactive; negative
CO[C@@H]1[C@H](O)C[C@@H](O[C@@H]2C[C@H](Oc3cc4cc5c(c(O)c4c(O)c3C)C(=O)[C@@H](O[C@H]3C[C@@H](O[C@H]4C[C@@H](O[C@H]6C[C@](C)(O)[C@@H](OC(C)=O)[C@H](C)O6)[C@H](O)[C@@H](C)O4)[C@H](O)[C@@H](C)O3)[C@H]([C@H](OC)C(=O)[C@@H](O)[C@@H](C)O)C5)O[C@H](C)[C@@H]2OC(C)=O)O[C@@H]1C,mutagenic call,"Species/Cell Type: Chinese hamster ovary (CHO) cells, Assay Type: Forward gene mutation at the HPRT locus, Assay Code: CHO+, Evaluation Type: Evaluation B (Post-1980)",active; positive
Nc1ccc(I)cc1,mutagenic call,[6],inactive; negative
Cn1ccc(CO)c1,mutagenic call,"Species/Cell Type: Human lymphocytes, Assay Type: Sister-chromatid exchange (SCE) in vitro, Assay Code: SCL+D, Dose Response: With dose response, Evaluation Type: Evaluation B (Post-1980)",active; positive
same,mutagenic call,"Species/Cell Type: Human, Assay Type: Sister-chromatid exchange (SCE) in vitro, Assay Code: SC1+D, Dose Response: With dose response, Evaluation Type: Evaluation B (Post-1980)",active; positive
CCNCC,mutagenic call,"Species/Cell Type: Saccharomyces cerevisiae, Assay Type: Forward gene mutation, Assay Code: YEF-*, Activation: With metabolic activation, Evaluation Type: Evaluation A (Pre-1980)",inactive; negative
CCOP(=S)(NC(C)C)Oc1ccccc1C(=O)OC(C)C (stereo not given),mutagenic call,"Species/Cell Type: Nonhuman, Assay Type: Sister-chromatid exchange (SCE) in vitro, Assay Code: SC2-, Evaluation Type: Evaluation B (Post-1980)",inactive; negative
Oc1ccc2ncccc2c1,mutagenic call,[4],inactive; negative
C/C=C1/C[C@@H](C)[C@](O)(CO)C(=O)OCC2=CCN3CC[C@@H](OC1=O)[C@@H]23,mutagenic call,[5],active; positive
same,mutagenic call,[1],active; positive
